From ChEMBL document CHEMBL1132515, “4-Chlorobenzyl sulfonamide and sulfamide derivatives of histamine homologues: the design of potent histamine H3 receptor antagonists” (Bioorg Med Chem Lett, 1999)

Tests used:
[1] = molecular target: Histamine H3 receptor (Cavia porcellus) (UniProt Q9JI35); test: Inhibition of neurogenic contractions in guinea pig ileum mediated by histamine H3 receptors; type: functional, tissue-based
Histamine H3 receptor = Histamine H3 receptor (Cavia porcellus, UniProt Q9JI35); test: Ability to displace [3H]R-alpha-methylhistamine from histamine H3 receptor in guinea pig ileum longitudinal muscle myenteric plexus(LMMP) membranes; type: tissue-based
Sequence of Histamine H3 receptor (Q9JI35 whole entry): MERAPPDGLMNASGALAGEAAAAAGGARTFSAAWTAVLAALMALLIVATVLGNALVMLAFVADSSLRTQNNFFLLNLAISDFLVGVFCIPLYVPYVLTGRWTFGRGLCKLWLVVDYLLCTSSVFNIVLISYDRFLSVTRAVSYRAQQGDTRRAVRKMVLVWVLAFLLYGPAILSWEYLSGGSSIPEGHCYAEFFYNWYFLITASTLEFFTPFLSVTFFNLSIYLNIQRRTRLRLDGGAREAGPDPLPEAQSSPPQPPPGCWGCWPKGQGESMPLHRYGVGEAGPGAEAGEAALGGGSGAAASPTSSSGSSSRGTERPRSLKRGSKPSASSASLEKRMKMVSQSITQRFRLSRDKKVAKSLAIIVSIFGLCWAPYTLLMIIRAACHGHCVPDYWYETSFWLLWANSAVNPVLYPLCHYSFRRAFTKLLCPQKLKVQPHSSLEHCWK

Sequence of Histamine H3 receptor (Cavia porcellus) (Q9JI35 whole entry): as above

SMILES	pKB [1]	Ki (Histamine H3 receptor)
COc1ccc(CNS(=O)(=O)NCCCCc2c[nH]cn2)cc1	7.06	–
O=S(=O)(Cc1ccc(C(F)(F)F)cc1)NCCCCc1c[nH]cn1	7.89	–
O=S(=O)(NCCCCc1c[nH]cn1)NCc1ccc(-c2ccccc2)cc1	8.32	–
O=S(=O)(NCCCCCCCc1c[nH]cn1)NCc1ccc(Cl)cc1	8.37	–
O=S(=O)(Cc1ccc(Cl)cc1)NCCCc1c[nH]cn1	6.29	–
O=S(=O)(NCCCCc1c[nH]cn1)NCc1ccccc1	7.01	–
O=S(=O)(Cc1ccc(Cl)cc1)NCCCCc1c[nH]cn1	8.62	–
O=S(=O)(Cc1ccc(Cl)cc1)NCCCCCCCCc1c[nH]cn1	6.64	–
O=S(=O)(NCCCCc1c[nH]cn1)NCc1ccc(C(F)(F)F)cc1	8.48	2.63 nM
O=S(=O)(NCCCCc1c[nH]cn1)NCc1ccc(Br)cc1	8.91	–
O=S(=O)(NCCCCc1c[nH]cn1)NCc1cccc(Cl)c1	7.86	–
O=S(=O)(NCCCCc1c[nH]cn1)NCc1ccccc1Cl	6.42	–
O=S(=O)(NCCCCCCCCCCc1c[nH]cn1)NCc1ccc(Cl)cc1	< 5	–
O=S(=O)(NCCCCCCc1c[nH]cn1)NCc1ccc(Cl)cc1	8.77	–
O=S(=O)(NCCCc1c[nH]cn1)NCc1ccc(Cl)cc1	7.04	–
O=S(=O)(Cc1ccc(Cl)cc1)NCCCCCCc1c[nH]cn1	8.01	–
O=S(=O)(NCCCCc1c[nH]cn1)NCc1ccc(Cl)cc1	8.68	–
O=S(=O)(Cc1ccc(F)cc1)NCCCCc1c[nH]cn1	7.32	–
O=S(=O)(NCCCCc1c[nH]cn1)NCc1ccc(I)cc1	8.49	–
O=S(=O)(Cc1ccc(Cl)cc1)NCCCCCc1c[nH]cn1	7.33	–
O=S(=O)(NCCCCCCCCc1c[nH]cn1)NCc1ccc(Cl)cc1	7.37	13.2 nM
O=S(=O)(Cc1ccc(Br)cc1)NCCCCc1c[nH]cn1	7.68	–
O=S(=O)(Cc1ccc(Cl)cc1)NCCCCCCCCCCc1c[nH]cn1	< 5	–
O=S(=O)(Cc1ccc(Cl)cc1)NCCCCCCCc1c[nH]cn1	7.36	–
O=S(=O)(NCCCCc1c[nH]cn1)NCc1ccc(F)cc1	7.7	–
O=S(=O)(Cc1ccc(-c2ccccc2)cc1)NCCCCc1c[nH]cn1	8.1	–
O=S(=O)(NCCCCCc1c[nH]cn1)NCc1ccc(Cl)cc1	8.2	–
